Measured values: PMC12736958 (Pharmaceutics, 2025)

Key:
MDCK cells [1] = assay: cellular uptake study (LC-MS/MS of intracellular Cur); type: cell-based, canine; conditions: 10 min incubation, 5 μg Cur-equivalent (10 μg/mL)
Description: MDCK cells were seeded in 24-well plates and cultured following the procedures described in Cytotoxicity Assay section. The cells were treated with 500 µL of complete DMEM medium (pH 7.4) containing crystalline Cur, amorphous Cur, binary Cur/P188 ASD (1:8, w/w), or ternary Cur/P188/TW80 or Cur/P188/SLS ASDs (1:8:1, w/w/w), at Cur-equivalent dose of 5 µg per well. After 10 min of incubation, the treatment was terminated by immediate removal of the medium. The cells were then washed three times with ice-cold PBS, lysed with 200 µL of 0.1% SDS (assisted by sonication), and dissolved in methanol at a 1:2 (v/v) ratio. The total intracellular Cur content was quantified using LC-MS/MS. All experiments were performed in quadruplicate (n = 4).
Cur quantification in cellular and rat plasma samples was carried out using a SCIEX QTRAP® 5500 LC-MS/MS system coupled with a SCIEX ExionLC^TM AC system (AB SCIEX, Framingham, MA, USA).
Separation was achieved on an Acquity UPLC® BEH C18 column (100 × 2.1 mm, 1.7 μm; Waters) maintained at 40 °C. […]
Mass spectrometric detection was performed using an IonDrive^TM Turbo V ion (SCIEX, Framingham, MA, USA) source operating in negative electrospray ionization (ESI) mode. Quantification was conducted via multiple reaction monitoring (MRM) at m/z 367.1→133.9 for Cur, and m/z 294.1→250.0 for diclofenac sodium (IS). […]

[2] = in vitro non-sink dissolution; type: physicochemical; conditions: Cur-equivalent 1 mg/mL, water pH 7.0, 37 °C
Description: (§1) The dissolution behavior of Cur formulations was evaluated under non-sink conditions. Tested formulations included pure amorphous Cur, binary Cur/P188 ASD (1:8, w/w), and ternary Cur/P188/TW80 and Cur/P188/SLS ASDs (1:8:1, w/w/w). Each sample was introduced into 6 mL of water (pH 7.0) to achieve a Cur-equivalent concentration of 1 mg/mL at 37 °C. Aliquots (0.4 mL) were collected at 10, 20, and 45 min, as well as at 1h and 2 h, and immediately centrifuged (10,000 rpm, 3 min, 25 °C) to separate the supernatant from the precipitate. (1) The supernatant was diluted 1:2 (v/v) with methanol and analyzed for Cur concentration via HPLC/UV-Vis; (2) The precipitate was vacuum-dried and analyzed for crystallinity using PXRD.
All dissolution experiments were conducted in triplicate (n = 3).
Cur content in in vitro dissolution samples was quantified using a Waters 2695 Alliance HPLC system (Waters Corporation, Milford, MA, USA) equipped with a Waters 2998 photodiode array (PDA) detector. Separation was performed on an XBridge® C18 column (4.6 × 250 mm, 5.0 μm; Waters) maintained at 25 °C. The mobile phase, composed of water and methanol (80:20, v/v), was delivered isocratically at a flow rate of 1.0 mL/min. The injection volume was 10 μL, and detection was performed at 430 nm, and Cur eluted at approximately 4.80 min. […]

MDCK cells [3] = assay: cytotoxicity assay (CCK-8 cell viability); type: cell-based, canine; conditions: 4 h treatment
Description: Madin-Darby Canine Kidney (MDCK) cells were seeded in 96-well plates (1 × 10^5 cells/well) and cultured for 24 h at 37 °C in complete DMEM (10% FBS, 1% penicillin–streptomycin) under 5% CO2. Cells were treated for 4 h with 100 µL of complete DMEM media (pH 7.4) containing crystalline Cur, amorphous Cur, binary Cur/P188 ASD (1:8, w/w), or ternary Cur/P188/TW80 or Cur/P188/SLS ASDs (1:8:1, w/w/w), at Cur-equivalent concentrations of 0 (vehicle), 2, 10, 25, 50, 100, and 200 μg/mL. After treatment, cells were washed three times with PBS (pH 7.4). Cell viability was assessed using a CCK-8 assay: 100 µL of serum-free DMEM and 10 µL of CCK-8 reagent were added to each well, followed by incubation for 2 h. Absorbance was measured at 450 nm using a Multiskan GO microplate reader (Thermo Fisher Scientific, Vantaa, Finland).
Cell viability was calculated according to the following equation:Viability (%) = [(As − Aᵦ)/(Ac − Aᵦ)] × 100% where
• As is the absorbance of experimental wells (cells + treatment + CCK-8); • Ac is the absorbance of control wells (cells + medium + CCK-8, no drug); • Aᵦ is the absorbance of blank wells (medium + CCK-8, no cells, no drug).
All experiments were performed in quintuplicate (n = 5).

[4] = PXRD crystallinity of precipitates collected during dissolution; type: physicochemical; conditions: precipitates collected at 20 min and 1 h of non-sink dissolution
Description: PXRD was used to characterize the crystalline nature of both freshly prepared Cur ASDs and precipitates collected during their dissolution. Measurements were conducted on a Rigaku Smartlab diffractometer (Rigaku Corporation, Tokyo, Japan) configured in Bragg–Brentano geometry using Cu Kα1 radiation. Diffractograms were collected over a 2θ range of 0° to 60° with a step size of 0.01°.
as §1

COc1cc(/C=C/C(=O)CC(=O)/C=C/c2ccc(O)c(OC)c2)ccc1O [amorphous Cur, Curcumin]
cellular uptake (% of the administered dose) (MDCK cells [1]): 1.4% | dissolved Cur concentration reached over 2 h [2]: ~ 1 μg/mL | IC50 (cytotoxicity, Cur-equivalent) (MDCK cells [3]): 54.7 µg/mL | crystallinity of precipitates during dissolution (PXRD) [4]: crystallized immediately upon hydration
